Reference: paper PMC9865890, “N-Derivatives of (Z)-Methyl 3-(4-Oxo-2-thioxothiazolidin-5-ylidene)methyl)-1H-indole-2-carboxylates as Antimicrobial Agents—In Silico and In Vitro Evaluation” (Pharmaceuticals, 2023)
≈ marks a conversion by molar mass, not a printed value. Like-named read-outs stand apart in the source and are kept apart here.

Legend:
P. aeruginosa = assay: Antibacterial microdilution (MIC/MBC); assay type: cell-based; details: Pseudomonas aeruginosa, P.a. (P. aeruginosa); for MIC: read-out: MIC
Description: (§1) The synthesized compounds (Table 1) were evaluated for their antibacterial activity against a panel of eight species using a microdilution method with ampicillin and streptomycin as reference drugs. […] The order of activity can be presented as: 8 > 11 > 2 > 1 > 12 > 3 > 17 > 7 > 5 > 13 > 14 > 16 > 9 > 4 = 6 > 15 > 10. […] Cloacae. […] The most sensitive bacteria appeared to be En. cloacae, while E. coli was the most resistant one, followed by M. flavus.
(§2) The following Gram-negative bacteria: Escherichia coli (ATCC 35210), Enterobacter cloacae (clinical isolate), Salmonella typhimurium (ATCC 13311), as well as Gram-positive bacteria: Listeria monocytogenes (NCTC 7973), Bacillus cereus (clinical isolate), and Staphylococcus aureus (ATCC 6538) were used. The organisms were obtained from the Mycological Laboratory, Department of Plant Physiology, Institute for Biological Research “Siniša Stankovic”, Belgrade, Serbia. The minimum inhibitory (MIC) and minimum bactericidal (MBC) concentrations were determined by the modified microdilution method, as previously reported.

[1] = system: Listeria monocytogenes (NCTC 7973); assay: Antibacterial microdilution (MIC/MBC); assay type: cell-based; details: Listeria monocytogenes, NCTC7973, L.m. (L. monocytogenes); for MIC: read-out: MIC
Description: as §1, §2

M. flavus = assay: Antibacterial microdilution (MIC/MBC); assay type: cell-based; details: Micrococcus flavus; M.f. (M. flavus)
Description: as §1, §2

[2] = system: Staphylococcus aureus (ATCC 6538); assay: Antibacterial microdilution (MIC/MBC); assay type: cell-based; details: S.a. (S. aureus)
Description: as §1, §2

[3] = system: Enterobacter cloacae (clinical isolate); assay: Antibacterial microdilution (MIC/MBC); assay type: cell-based; details: Enterobacter cloacae, En.cl (En. cloacae); for MIC: read-out: MIC
Description: as §1, §2

[4] = system: Escherichia coli (ATCC 35210); assay: Antibacterial microdilution (MIC/MBC); assay type: cell-based; details: Escherichia coli, ATCC35210, E. coli; for MIC: read-out: MIC
Description: as §1, §2

[5] = system: Salmonella typhimurium (ATCC 13311); assay: Antibacterial microdilution (MIC/MBC); assay type: cell-based; details: Salmonella enterica, S.t. (S. typhimurium); for MIC: read-out: MIC
Description: as §1, §2

[6] = system: Bacillus cereus (clinical isolate); assay: Antibacterial microdilution (MIC/MBC); assay type: cell-based; details: Bacillus cereus, B.c. (B. cereus); for MIC: read-out: MIC
Description: as §1, §2

[7] = system: Trichoderma viride (IAM 5061); assay: Antifungal bioassay (MIC/MFC); assay type: cell-based; details: T.v. (T. viride)
Description: (§3) For the antifungal bioassays, six fungi were used: […] The organisms were obtained from the Mycological Laboratory, Department of Plant Physiology, Institute for Biological Research “Siniša Stankovic”, Belgrade, Serbia. All experiments were performed in duplicate.

[8] = system: Aspergillus niger (ATCC 6275); assay: Antifungal bioassay (MIC/MFC); assay type: cell-based; details: ATCC6275, A.n. (A. niger)
Description: as §3

P. ochrochloron = assay: Antifungal bioassay (MIC/MFC); assay type: cell-based; details: Penicillium ochrochloron; for MFC: P.o. (P. ochrochloron); for MIC: P.o. (P. ochrochloron; text: P. ochramensis), read-out: MIC
Description: as §3

[9] = system: Penicillium funiculosum (ATCC 36839); assay: Antifungal bioassay (MIC/MFC); assay type: cell-based; details: Talaromyces funiculosus, ATCC36839; P.f. (P. funiculosum)
Description: as §3

[10] = system: Aspergillus versicolor (ATCC 11730); assay: Antifungal bioassay (MIC/MFC); assay type: cell-based; details: ATCC11730, A.v. (A. versicolor)
Description: as §3

A. ochraceus = assay: Antifungal bioassay (MIC/MFC); assay type: cell-based; details: Aspergillus ochraceus, A.o. (A. ochraceus); for MIC: read-out: MIC
Description: as §3

[11] = system: Aspergillus fumigatus (ATCC 1022); assay: Antifungal bioassay (MIC/MFC); assay type: cell-based; details: ATCC1022, A.f. (A. fumigatus)
Description: as §3

[12] = system: Penicillium verrucosum var. cyclopium (food isolate); assay: Antifungal bioassay (MIC/MFC); assay type: cell-based
Description: For the antifungal bioassays, six fungi were used: Aspergillus niger (ATCC 6275), Aspergillus fumigatus (ATCC 1022), Aspergillus versicolor (ATCC 11730), Penicillium funiculosum (ATCC 36839), Trichoderma viride (IAM 5061), and Penicillium verrucosum var. cyclopium (food isolate). The organisms were obtained from the Mycological Laboratory, Department of Plant Physiology, Institute for Biological Research “Siniša Stankovic”, Belgrade, Serbia. All experiments were performed in duplicate.

[13] = Staphylococcus aureus, ATCC6538
[14] = Staphylococcus aureus, ATCC6538, read-out: MIC

Row | SMILES | MBC (P. aeruginosa) [µg/mL] | MIC (P. aeruginosa) [µg/mL] | MBC [1] [µg/mL] | MIC [1] [µg/mL] | MBC (M. flavus) [µg/mL] | MIC (M. flavus) [µg/mL] | MBC [2, 13] [µg/mL] | MIC [2, 14] [µg/mL] | MBC [3] [µg/mL] | MIC [3] [µg/mL] | MBC [4] [µg/mL] | MIC [4] [µg/mL] | MBC [5] [µg/mL] | MIC [5] [µg/mL] | MBC [6] [µg/mL] | MIC [6] [µg/mL] | MFC [8] [µg/mL] | MIC [8] [µg/mL] | MFC (P. ochrochloron) [µg/mL] | MIC (P. ochrochloron) [µg/mL] | further results
1 | COC(=O)c1[nH]c2ccccc2c1/C=C1\SC(=S)N(c2ccc(O)cc2)C1=O [Compound 4, (Z)-methyl 3-((3-(4-hydroxyphenyl)-4-oxo-2-thioxothiazolidin-5-ylidene)methyl)-1H-indole-2-carboxylate] | 60 ± 6 (≈ 146 µM) | 30 ± 10 (≈ 73.1 µM) | 60 ± 6 (≈ 146 µM) | 45 ± 1 (≈ 110 µM) | 60 ± 6 (≈ 146 µM) | 45 ± 3 (≈ 110 µM) | 60 ± 6 (≈ 146 µM) | 30 ± 10 (≈ 73.1 µM) | 30 ± 10 (≈ 73.1 µM) | 15 ± 9 (≈ 36.5 µM) | 60 ± 6 (≈ 146 µM) | 45 ± 3 (≈ 110 µM) | 60 ± 6 (≈ 146 µM) | 45 ± 3 (≈ 110 µM) | 60 ± 6 (≈ 146 µM) | 30 ± 10 (≈ 73.1 µM) | 30 ± 10 (≈ 73.1 µM) | 15 ± 3 (≈ 36.5 µM) | 30 ± 10 (≈ 73.1 µM) | 15 ± 3 (≈ 36.5 µM) | MIC [7]: 8 ± 0.6 µg/mL (≈ 19.5 µM); MFC ([7]; Trichoderma viride, IAM5061): 15 ± 3 µg/mL (≈ 36.5 µM); MIC ([7]; Trichoderma viride, IAM5061, read-out: MIC): 8 µg/mL (≈ 19.5 µM); MFC [9]: 30 ± 10 µg/mL (≈ 73.1 µM); MIC [9]: 15 ± 3 µg/mL (≈ 36.5 µM); MFC [10]: 15 ± 3 µg/mL (≈ 36.5 µM); MIC [10]: 8 ± 0.6 µg/mL (≈ 19.5 µM); MFC (A. ochraceus): 15 ± 3 µg/mL (≈ 36.5 µM); MIC (A. ochraceus): 8 ± 0.6 µg/mL (≈ 19.5 µM); MFC [11]: 120 ± 40 µg/mL (≈ 292 µM); MIC [11]: 60 ± 6 µg/mL (≈ 146 µM); melting point: 282 to 284 °C; MFC [12]: 60 ± 6 µg/mL (≈ 146 µM); MIC [12]: 30 ± 10 µg/mL (≈ 73.1 µM)
2 | COC(=O)c1[nH]c2ccccc2c1/C=C1\SC(=S)N(CCC(=O)O)C1=O [Compound 17, (Z)-3-(5-((2-(methoxycarbonyl)-1H-indol-3-yl)methylene)-4-oxo-2-thioxothiazolidin-3-yl)propanoic acid] | 15 ± 9 (≈ 38.4 µM) | 8 (≈ 20.5 µM) | 60 ± 6 (≈ 154 µM) | 30 ± 10 (≈ 76.8 µM) | 60 ± 6 (≈ 154 µM) | 30 ± 10 (≈ 76.8 µM) | 15 (≈ 38.4 µM) | 8 (≈ 20.5 µM) | 15 ± 9 (≈ 38.4 µM) | 8 ± 0.6 (≈ 20.5 µM) | 60 ± 6 (≈ 154 µM) | 45 ± 3 (≈ 115 µM) | 60 ± 6 (≈ 154 µM) | 30 ± 10 (≈ 76.8 µM) | 60 ± 6 (≈ 154 µM) | 30 ± 10 (≈ 76.8 µM) | 15 ± 3 (≈ 38.4 µM) | 22 ± 5 (≈ 56.3 µM) | 30 ± 10 (≈ 76.8 µM) | 15 ± 3 (≈ 38.4 µM) | MIC [2]: 8 ± 0.6 µg/mL (≈ 20.5 µM); MFC [9]: 30 ± 10 µg/mL (≈ 76.8 µM); MIC [9]: 15 ± 3 µg/mL (≈ 38.4 µM); MFC [10]: 30 ± 10 µg/mL (≈ 76.8 µM); MIC [10]: 15 ± 3 µg/mL (≈ 38.4 µM); MFC (A. ochraceus): 15 ± 3 µg/mL (≈ 38.4 µM); MIC (A. ochraceus): 8 ± 0.6 µg/mL (≈ 20.5 µM); MFC [11]: 120 ± 40 µg/mL (≈ 307 µM); MIC [11]: 60 ± 6 µg/mL (≈ 154 µM); melting point: 265 to 266 °C; MFC [12]: 60 ± 6 µg/mL (≈ 154 µM); MIC [12]: 30 ± 10 µg/mL (≈ 76.8 µM)
